In patent US20250099448A1, “HETEROCYCLIC COMPOUNDS” (Hoffmann-La Roche Inc., priority 2022, published 2025) one finds IC50 data, which are given here for 37 molecules.

This test has as its target T1, MAGL protein (Homo sapiens, UniProt Q99685).
T1 sequence (Q99685 1-303): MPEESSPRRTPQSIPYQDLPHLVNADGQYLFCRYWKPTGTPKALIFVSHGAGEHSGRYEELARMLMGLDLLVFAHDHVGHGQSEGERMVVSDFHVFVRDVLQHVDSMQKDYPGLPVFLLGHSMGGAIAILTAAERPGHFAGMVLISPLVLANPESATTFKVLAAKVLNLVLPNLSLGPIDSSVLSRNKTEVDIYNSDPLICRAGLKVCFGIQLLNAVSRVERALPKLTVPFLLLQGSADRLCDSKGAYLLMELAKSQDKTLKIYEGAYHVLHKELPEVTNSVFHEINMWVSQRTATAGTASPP
Put plainly: 2-AG assay: MAGL inhibitory activity by hydrolysis of 2-arachidonoylglycerol to arachidonic acid, followed by mass spectrometry. In kind it is biochemical. The note with it: 8 μM 2-arachidonoylglycerol, 15 min preincubation, 30 min reaction at RT, RapidFire MS readout. The procedure, abridged: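 MAGL was preincubated 15 min at RT with compound (12.5 to […], 3-fold steps) in 50 mM TRIS, 1 mM EDTA, 0.01% Tween-20, 2.5% DMSO. The reaction ran 30 min at RT with 8 μM 2-AG. Arachidonic acid was quantified by RapidFire SPE-MS/MS against a d8-arachidonic acid internal standard.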

In general, IC50 refers to the concentration needed to halve the response being measured.

The molecule `CS(=O)(=O)c1cc(OC(F)(F)F)ccc1OCC1CCN(C(=O)N2CC3(CC(c4nnc(C5CC5)[nH]4)C3)C2)CC1` [Example 917, [6-(5-cyclopropyl-4H-1,2,4-triazol-3-yl)-2-azaspiro[3.3]heptan-2-yl]-[4-[[2-mesyl-4-(trifluoromethoxy)phenoxy]methyl]piperidino]methanone] registered an IC50 of 237 nM. For the molecule `O=C(N1CC2(CC(c3nc(C4CC4)n[nH]3)C2)C1)N1CC2(CN(Cc3nc(C(F)(F)F)cs3)C2)C1` [compound 430], half-maximal inhibition (IC50) required 5.22 nM.

With `O=C(N1CC(c2ccc(C3(C(F)(F)F)CC3)cc2)C1)N1CC2(CC(c3nnc(C4(O)CC4)[nH]3)C2)C1` [compound 227], the IC50 was 0.91 nM. Consider `O=C(N1CC(NCc2cc(Cl)cc(C(F)(F)F)c2)C1)N1CC2(CC(c3nnc(C4CC4)[nH]3)C2)C1` [compound 194], for which the IC50 stood at 18.4 nM. `O=C(N1CC(Oc2ccc(Cl)c(C3CC3)c2)C1)N1CC2(CC(c3nnc(C4(O)CC4)[nH]3)C2)C1` [compound 325]: the midpoint of inhibition, the IC50, lay at 14.7 nM. `O=C(N1CC2(CCC(NS(=O)(=O)C3CCC(F)(F)CC3)CC2)C1)N1CC2(CC(c3nnc(C4CC4)[nH]3)C2)C1` [compound 358] returned an IC50 of 26.3 nM. Molecule `O=C(N1CC2(CCN(Cc3nc(C(F)(F)F)cs3)CC2)C1)N1CC2(CC(c3nc(C4CC4)n[nH]3)C2)C1` [compound 732] registered a half-inhibitory concentration (IC50) of 6.18 nM. For `O=C(N1CC(C23CC(Cc4nnc(C5CC5)o4)(C2)C3)C1)N1CC2(CC(c3nc(C4CC4)n[nH]3)C2)C1` [compound 928], the 50% inhibitory concentration (IC50) came to 2.53 nM. In the case of `O=C(N1CC2(CC(Cc3ncc(Cl)cc3F)C2)C1)N1CC2(CC(c3nc(C4(O)CC4)n[nH]3)C2)C1` [compound 676] it was 2.94 nM; in that of `NC(=O)c1ccccc1-c1ccc(C2CN(C(=O)N3CC4(CC(c5nnc(C6CC6)[nH]5)C4)C3)C2)cc1` [compound 340], 1.09 nM. For `O=C(N1CC2(CC(Cc3cnn(CC(F)(F)F)c3)C2)C1)N1CC2(CC(c3nc(C4CC4)n[nH]3)C2)C1` [compound 764], the midpoint of inhibition, the IC50, lay at 1.08 nM. Turning to `Cc1csc(CN2CC3(C2)CN(C(=O)N2CC4(CC(c5nnc(C6CC6)[nH]5)C4)C2)C3)n1` [Example 895, [6-(5-cyclopropyl-4H-1,2,4-triazol-3-yl)-2-azaspiro[3.3]heptan-2-yl]-[6-[(4-methylthiazol-2-yl)methyl]-2,6-diazaspiro[3.3]heptan-2-yl]methanone], the concentration for half-maximal inhibition (IC50) stood at 23.5 nM.

As to `O=C(N1CC2(CC(c3nc(C4CC4)n[nH]3)C2)C1)N1CC2(CC(C(F)(F)c3ccc(C(F)(F)F)nn3)C2)C1` [compound 446], the IC50 is 1.71 nM. `CS(=O)(=O)c1cc(C(F)(F)F)ccc1CC1CC2(C1)CN(C(=O)N1CC3(CC(c4nnc(C5CC5)[nH]4)C3)C1)C2` [compound 39] had an IC50 of 0.15 nM.

In turn, `O=C(N1CC(c2noc(C3(C(F)(F)F)CC3)n2)C1)N1CC2(CC(c3nnc(C4CC4)[nH]3)C2)C1` [compound 246] gave an IC50 of 66.8 nM. In the case of `O=C(N1CC2(CC(Cc3cnc(C(F)(F)F)nc3)C2)C1)N1CC2(CC(c3nc(C4(F)CC4)n[nH]3)C2)C1` [compound 565] it was 1.04 nM; in that of `O=C(N1CC2(CCC(Cc3ncc(F)cc3F)CC2)C1)N1CC2(CC(c3nnc(C4(O)CC4)[nH]3)C2)C1` [compound 143], 14.5 nM.

Molecule `NC(=O)[C@H]1CC(F)(F)CCN1c1ccc(C2CN(C(=O)N3CC4(CC(c5nnc(C6CC6)[nH]5)C4)C3)C2)cc1` [Example 396, (2R)-1-[4-[1-[6-(5-cyclopropyl-4H-1,2,4-triazol-3-yl)-2-azaspiro[3.3]heptane-2-carbonyl]azetidin-3-yl]phenyl]-4,4-difluoro-piperidine-2-carboxamide] came in with an IC50 of 4.77 nM. Regarding `O=C(N1CC2(CCC(Oc3ccc(C(F)(F)F)nn3)CC2)C1)N1CC2(CC(c3nnc(C4CC4)[nH]3)C2)C1` [compound 51], 1.77 nM corresponded to half-maximal inhibition (IC50). In the case of `CS(=O)(=O)c1cc(F)cc(CC2CC3(C2)CN(C(=O)N2CC4(CC(c5nnc(C6CC6)[nH]5)C4)C2)C3)c1` [compound 18] it was 0.3 nM; in that of `O=C(N1CC(c2ccc(N3CC4(CCCC4)C3)nc2)C1)N1CC2(CC(c3nnc(C4CC4)[nH]3)C2)C1` [compound 302], 0.48 nM; in that of `O=C(N1CC2(CC(c3nc(C4CC4)n[nH]3)C2)C1)N1CC2(CN(Cc3coc(C(F)(F)F)n3)C2)C1` [compound 763], 27.1 nM. Consider `O=C(N1CC2(CC(c3nc(C4CC4)n[nH]3)C2)C1)N1CC2(CN(Cc3cnc(C(F)(F)F)s3)C2)C1` [compound 784], for which the IC50 worked out at 5.18 nM. In the case of `O=C(N1CC2(CC(Cc3cc(C(F)(F)F)ccn3)C2)C1)N1CC2(CC(c3nnc(C4CC4)[nH]3)C2)C1` [compound 118], half-maximal inhibition (IC50) required 0.19 nM. For `CC(C)(C)c1coc(CN2CC3(C2)CN(C(=O)N2CC4(CC(c5nc(C6CC6)n[nH]5)C4)C2)C3)n1` [compound 483], half-maximal inhibition (IC50) required 2.13 nM. Consider `Cn1nccc1CN1CC2(C1)CN(C(=O)N1CC3(CC(c4nc(C5CC5)n[nH]4)C3)C1)C2` [compound 901], for which the 50% inhibitory concentration (IC50) amounted to 136 nM.

In turn, `O=C(N1CC2(CC(c3nc(C4CC4)n[nH]3)C2)C1)N1CC2(CN(Cc3noc(C(F)(F)F)n3)C2)C1` [compound 957] yielded an IC50 of 97.3 nM. Then `O=C(N1CC(c2ccc(N3CCC4(COC4)C3)nc2)C1)N1CC2(CC(c3nnc(C4CC4)[nH]3)C2)C1` [Example 303, [6-(5-cyclopropyl-4H-1,2,4-triazol-3-yl)-2-azaspiro[3.3]heptan-2-yl]-[3-[6-(2-oxa-7-azaspiro[3.4]octan-7 yl)-3-pyridyl]azetidin-1-yl]methanone], with 6.31 nM; and `N#Cc1ccc(CC2CC3(C2)CN(C(=O)N2CC4(CC(c5nc(C6CC(F)(F)C6)n[nH]5)C4)C2)C3)cc1C(F)(F)F` [compound 677], with 13 nM. In turn, `O=C(N1CC2(CC(Cn3cc(C4(C(F)(F)F)CC4)cn3)C2)C1)N1CC2(CC(c3nc(C4CC4)n[nH]3)C2)C1` [compound 711] gave a half-inhibitory concentration (IC50) of 0.2 nM.

Turning to `Cc1sc(-c2ccc(C3CN(C(=O)N4CC5(CC(c6nnc(C7CC7)[nH]6)C5)C4)C3)cc2)nc1C(C)O` (stereo not shown) [Example 840, [6-(5-cyclopropyl-4H-1,2,4-triazol-3-yl)-2-azaspiro[3.3]heptan-2-yl]-[3-[4-[4-(1-hydroxyethyl)-5-methyl-thiazol-2-yl]phenyl]azetidin-1-yl]methanone], the concentration for half-maximal inhibition (IC50) came out at 2.91 nM. In the case of `O=C(N1CC2(CC(c3nc(C4CC4)n[nH]3)C2)C1)N1CC2(CCN(Cc3ccc(S(=O)(=O)C(F)(F)F)cc3)C2)C1` [compound 703] it was 2.63 nM. The molecule `CS(=N)(=O)c1cc(C(F)(F)F)ccc1CC1CC2(C1)CN(C(=O)N1CC3(CC(c4nc(C5CC5)n[nH]4)C3)C1)C2` (stereo not shown) [compound 481] had an IC50 of 1.06 nM.

Take `N#Cc1ccc(CC2CC3(C2)CN(C(=O)N2CC4(CC(c5nc(C6(O)CC6)n[nH]5)C4)C2)C3)cc1C(F)(F)F` [compound 629]: 1.45 nM corresponded to half-maximal inhibition (IC50).

Molecule `O=C(N1CC2(CC(c3nc(C4CC4)n[nH]3)C2)C1)N1CC2(CN(Cc3ccnn3CC(F)(F)F)C2)C1` [compound 717] had an IC50 of 83.8 nM. `O=C(N1CC2(CC(Cn3cc(CC(F)(F)F)cn3)C2)C1)N1CC2(CC(c3nc(C4CC4)n[nH]3)C2)C1` [compound 690] registered an IC50 of 0.61 nM.

Regarding `N#Cc1ccc(CC2CC3(C2)CN(C(=O)N2CC4(CC(c5nc(C6(O)CC6)n[nH]5)C4)C2)C3)c(F)c1` [compound 752], half-maximal inhibition (IC50) was put at 0.29 nM.
